In test [1] the test system is TGF-β-stimulated SMAD3 phosphorylation in BEAS-2B cells. Description: Cellular ALK5 potency assay, inhibition of TGF-β stimulated pSMAD3 formation in BEAS-2B cells. The format is cell-based. As to conditions: Homo sapiens, pSMAD3, TGF-β 10 ng/mL, read-out: BEAS2B pIC50 (converted). An outline of the steps: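 Cells were seeded overnight, rinsed into HEPES/BSA-supplemented HBSS, and dosed with serially diluted compound for 1 h at 37 °C, 5% CO2. TGF-β stimulation (10 ng/mL final) followed for 30 min, then lysis and AlphaLISA pSMAD3 measurement; potency reported as pIC50.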

The target in test [2] is T1, recombinant human ALK5 (TGF-βR1) protein (Homo sapiens, UniProt P36897).
T1 construct: purchased Life Technologies PR9075A
T1 sequence (P36897 34-503): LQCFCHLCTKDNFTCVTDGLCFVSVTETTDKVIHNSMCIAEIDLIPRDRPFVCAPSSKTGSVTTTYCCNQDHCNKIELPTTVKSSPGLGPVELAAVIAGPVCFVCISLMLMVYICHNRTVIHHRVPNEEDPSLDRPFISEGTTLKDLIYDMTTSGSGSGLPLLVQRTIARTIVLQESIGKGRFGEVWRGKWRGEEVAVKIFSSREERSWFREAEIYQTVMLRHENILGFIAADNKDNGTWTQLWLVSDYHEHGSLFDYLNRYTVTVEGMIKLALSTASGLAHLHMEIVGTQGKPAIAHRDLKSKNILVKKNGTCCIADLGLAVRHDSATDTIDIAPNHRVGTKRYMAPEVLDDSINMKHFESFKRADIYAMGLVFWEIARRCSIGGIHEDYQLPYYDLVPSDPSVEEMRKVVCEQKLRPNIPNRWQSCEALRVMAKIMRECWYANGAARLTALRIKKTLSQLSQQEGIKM
Description: Biochemical ALK5 (TGF-βR1) assay to measure pKi (LANCE Ultra ULight kinase assay). As to conditions: apparent pKi, converted from pIC50 by Cheng-Prusoff. An outline of the steps:
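Enzyme was preincubated with compound for 60 min at room temperature, then ATP (added from a 125 μM 5× stock with 2 mM DTT) started a 60 min reaction at 37 °C. EDTA plus Eu-anti-phospho-Topo2α (Thr1342) antibody stopped it; TR-FRET pIC50 values were converted to pKi by Cheng-Prusoff.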

With `Cc1cccc(-c2nccc(Nc3ccnc(Nc4ccc(Cc5ncco5)cc4)n3)n2)n1` [Compound 485, N4-[2-(6-methyl-2-pyridyl)pyrimidin-4-yl]-N2-[4-(oxazol-2-ylmethyl)phenyl]pyrimidine-2,4-diamine], in test [1], the IC50 is 25.1 to 158 nM. Also, in test [2], the Ki is 0.398 to 3.16 nM.
On the same counts, the results for `Cc1cccc(-c2nccc(Nc3ccnc(Nc4cccc(C(=O)N5CCNCC5)c4)n3)n2)n1` [Compound 505, [3-[[4-[[2-(6-methyl-2-pyridyl)pyrimidin-4-yl]amino]pyrimidin-2-yl]amino]phenyl]-piperazin-1-yl-methanone] are 25.1 to 158 nM and 0.398 to 3.16 nM.
`Cc1cccc(-c2nccc(Nc3ccnc(Nc4cc(C(=O)O[C@H]5CCN(C)C5)cs4)n3)n2)n1` [Compound 345, [(3S)-1-methylpyrrolidin-3-yl] 5-[[4-[[2-(6-methyl-2-pyridyl)pyrimidin-4-yl]amino]pyrimidin-2-yl]amino]thiophene-3-carboxylate]: the IC50 in test [1] was 25.1 to 158 nM. Also, the Ki in test [2] is 0.0398 to 0.316 nM.
In the same order, the values of `Cc1cccc(-c2nccc(Nc3ccnc(Nc4ccc(N5CCNCC5)c(CC(=O)OCC(C)C)c4)n3)n2)n1` [Compound 205, isobutyl 2-[5-[[4-[[2-(6-methyl-2-pyridyl)pyrimidin-4-yl]amino]pyrimidin-2-yl]amino]-2-piperazin-1-yl-phenyl]acetate] are 25.1 to 158 nM and 0.0398 to 0.316 nM.
On the same counts, the results for `CN1CCN(C2CCN(c3ccc(Nc4nccc(Nc5ccnc(-c6cc(Cl)c(F)cc6F)n5)n4)cc3)CC2)CC1` [Compound 326, N4-[2-(5-chloro-2,4-difluoro-phenyl)pyrimidin-4-yl]-N2-[4-[4-(4-methylpiperazin-1-yl)-1-piperidyl]phenyl]pyrimidine-2,4-diamine] are 200 to 1260 nM and 0.0398 to 0.316 nM.
For the molecule `Cc1cccc(-c2nccc(Nc3ccnc(Nc4nc(C(=O)N[C@@H]5CCNC5)cs4)n3)n2)n1` [Compound 404, 2-[[4-[[2-(6-methyl-2-pyridyl)pyrimidin-4-yl]amino]pyrimidin-2-yl]amino]-N-[(3R)-pyrrolidin-3-yl]thiazole-4-carboxamide], in test [1], the IC50 was 25.1 to 158 nM. Further, the Ki in test [2] was not above 0.0316 nM.
In the same order, the values of `Cc1cccc(-c2nccc(Nc3ccnc(Nc4ccc(N5C6CCC5CNC6)cc4)n3)n2)n1` [Compound 221, N2-(4-(3,8-diazabicyclo[3.2.1]octan-8-yl)phenyl)-N4-(2-(6-methylpyridin-2-yl)pyrimidin-4-yl)pyrimidine-2,4-diamine] are 25.1 to 158 nM and 0.0398 to 0.316 nM.
As to `Cc1cccc(-c2nc(Nc3ccnc(Nc4nc(C(=O)O)cs4)n3)c3cccn3n2)n1` [Compound 1022, 2-[[4-[[2-(6-methyl-2-pyridyl)pyrrolo[2,1-f][1,2,4]triazin-4-yl]amino]pyrimidin-2-yl]amino]thiazole-4-carboxylic acid], the IC50 in test [1] was 200 to 1260 nM. The Ki in test [2] was 0.398 to 3.16 nM.
On the same counts, the results for `CC(=O)N1CC(COC(=O)c2cc(Nc3nccc(Nc4ccnc(-c5cccc(C)n5)n4)n3)cs2)C1` [Compound 576, (1-acetylazetidin-3-yl)methyl 4-[[4-[[2-(6-methyl-2-pyridyl)pyrimidin-4-yl]amino]pyrimidin-2-yl]amino]thiophene-2-carboxylate] are 25.1 to 158 nM and 0.0398 to 0.316 nM.
For the molecule `Cc1cccc(-c2nccc(Nc3ccnc(Nc4ccc(CN5CCC[C@@H](C(=O)O[C@@H]6CCN(C)C6)C5)cc4)n3)n2)n1` [Compound 341, [(3R)-1-methylpyrrolidin-3-yl] (3R)-1-[[4-[[4-[[2-(6-methyl-2-pyridyl)pyrimidin-4-yl]amino]pyrimidin-2-yl]amino]phenyl]methyl] piperidine-3-carboxylate], the IC50 in test [1] is 25.1 to 158 nM. The Ki in test [2] is 0.0398 to 0.316 nM.
In the same order, the values of `COC1(C)CN(Cc2ccc(Nc3nccc(Nc4ccnc(-c5cccc(C)n5)n4)n3)cc2)C1` [Compound 493, N2-[4-[(3-methoxy-3-methyl-azetidin-1-yl)methyl]phenyl]-N4-[2-(6-methyl-2-pyridyl)pyrimidin-4-yl]pyrimidine-2,4-diamine] are 25.1 to 158 nM and 0.0398 to 0.316 nM.
In the case of `Cc1cccc(-c2nccc(Nc3ccnc(Nc4ccc(NS(C)(=O)=O)cc4)n3)n2)n1` [Compound 272, N-[4-[[4-[[2-(6-methyl-2-pyridyl)pyrimidin-4-yl]amino]pyrimidin-2-yl]amino]phenyl] methanesulfonamide], the IC50 in test [1] is 25.1 to 158 nM. Further, in test [2], the Ki is 0.0398 to 0.316 nM.
As to `Cc1cccc(-c2nccc(Nc3ccnc(Nc4cnn(C5CCCNC5)c4)n3)n2)n1` (stereo not drawn) [Compound 373, N4-[2-(6-methyl-2-pyridyl)pyrimidin-4-yl]-N2-[1-(3-piperidyl)pyrazol-4-yl]pyrimidine-2,4-diamine], in test [1], the IC50 was 200 to 1260 nM. In test [2], the Ki is not above 0.0316 nM.
On the same counts, the results for `Cc1cccc(-c2nccc(Nc3ccnc(Nc4ccc(CN5C6CCC5CNC6)cc4)n3)n2)n1` [Compound 197, N2-[4-(3,8-diazabicyclo[3.2.1]octan-8-ylmethyl)phenyl]-N4-[2-(6-methyl-2-pyridyl)pyrimidin-4-yl]pyrimidine-2,4-diamine] are 25.1 to 158 nM and 0.0398 to 0.316 nM.
With `COc1ccc(Nc2nccc(Nc3ccnc(-c4cccc(C)n4)n3)n2)cc1CN1C[C@@H](C)N[C@@H](C)C1` [Compound 431, N2-[4-methoxy-3-[[rac-(3R,5S)-3,5-dimethylpiperazin-1-yl]methyl]phenyl]-N4-[2-(6-methyl-2-pyridyl)pyrimidin-4-yl]pyrimidine-2,4-diamine], the IC50 in test [1] was 25.1 to 158 nM. In test [2], the Ki was 0.0398 to 0.316 nM.
On the same counts, the results for `Cc1cccc(-c2nccc(Nc3ccnc(Nc4ccc(N5CCN(C)CC5)cc4)n3)n2)n1` [Compound 153, N2-[4-(4-methylpiperazin-1-yl)phenyl]-N4-[2-(6-methyl-2-pyridyl)pyrimidin-4-yl]pyrimidine-2,4-diamine] are 25.1 to 158 nM and not above 0.0316 nM.
For the molecule `Cc1cccc(-c2nc(Nc3ccnc(Nc4ccc(C(=O)N5CCC6(CC5)CNC6)cc4)n3)c3cccn3n2)n1` [Compound 1033, 2,7-diazaspiro[3.5]nonan-7-yl-[4-[[4-[[2-(6-methyl-2-pyridyl)pyrrolo[2,1-f][1,2,4]triazin-4-yl]amino]pyrimidin-2-yl]amino]phenyl]methanone], in test [1], the IC50 is 25.1 to 158 nM. In addition, the Ki in test [2] was 0.0398 to 0.316 nM.
As for `Cc1cccc(-c2nccc(Nc3ccnc(Nc4csc(C(=O)OCCN5CC[C@@H](N)C5)c4)n3)n2)n1` [Compound 568, 2-[(3R)-3-aminopyrrolidin-1-yl]ethyl 4-[[4-[[2-(6-methyl-2-pyridyl)pyrimidin-4-yl]amino]pyrimidin-2-yl]amino]thiophene-2-carboxylate], in test [1], the IC50 is 25.1 to 158 nM. Also, in test [2], the Ki was 0.0398 to 0.316 nM.
In the same order, the values of `Fc1ccc(Cl)cc1-c1nccc(Nc2ccnc(Nc3ccc(N4CCC(N5CCCC5)CC4)cc3)n2)n1` [Compound 412, N4-[2-(5-chloro-2-fluoro-phenyl)pyrimidin-4-yl]-N2-[4-(4-pyrrolidin-1-yl-1-piperidyl)phenyl]pyrimidine-2,4-diamine] are 25.1 to 158 nM and 0.0398 to 0.316 nM.
In the same order, the values of `CC(=O)N1CCN(c2ccc(Nc3nccc(Nc4ccnc(-c5cccc(C)n5)n4)n3)cc2)CC1` [Compound 261, 1-[4-[4-[[4-[[2-(6-methyl-2-pyridyl)pyrimidin-4-yl]amino]pyrimidin-2-yl]amino]phenyl]piperazin-1-yl]ethanone] are not above 20 nM and not above 0.0316 nM.
On to `Cc1cccc(-c2nc(Nc3ccnc(Nc4ccc(NC(=O)C5(CO)CNC5)cc4)n3)c3cccn3n2)n1` [Compound 1031, 3-(hydroxymethyl)-N-[4-[[4-[[2-(6-methyl-2-pyridyl)pyrrolo[2,1-f][1,2,4]triazin-4-yl]amino]pyrimidin-2-yl]amino]phenyl]azetidine-3-carboxamide], for which, in test [1], the IC50 was 25.1 to 158 nM. For the same molecule, the Ki in test [2] was 0.0398 to 0.316 nM.
Regarding `Cc1cccc(-c2nccc(Nc3ccnc(Nc4ccc(-c5cn(C)nn5)cc4)n3)n2)n1` [Compound 328, N4-[2-(6-methyl-2-pyridyl)pyrimidin-4-yl]-N2-[4-(1-methyltriazol-4-yl)phenyl]pyrimidine-2,4-diamine], in test [1], the IC50 is not above 20 nM. The Ki in test [2] was 0.0398 to 0.316 nM.
On the same counts, the results for `Cc1cccc(-c2nccc(Nc3ccnc(Nc4ccc(S(N)(=O)=O)cn4)n3)n2)n1` [Compound 119, 6-[[4-[[2-(6-methyl-2-pyridyl)pyrimidin-4-yl]amino]pyrimidin-2-yl]amino]pyridine-3-sulfonamide] are 25.1 to 158 nM and 3.98 to 31.6 nM.
Regarding `Cc1cccc(-c2nccc(Nc3ccnc(Nc4cc(C(=O)N5CCNCC5)cs4)n3)n2)n1` [Compound 389, [5-[[4-[[2-(6-methyl-2-pyridyl)pyrimidin-4-yl]amino]pyrimidin-2-yl]amino]-3-thienyl]-piperazin-1-yl-methanone], the IC50 in test [1] is 25.1 to 158 nM. The Ki in test [2] was 0.0398 to 0.316 nM.
